Square brackets hold non-standard residues; d marks the D form. Peptide text beside a SMILES is read from it. * marks the point of attachment. ξ: configuration not given here. ξF = NC(Cc1ccccc1)C(=O)O; Bn = c1ccc(C*)cc1; Ms = CS(=O)(=O)*; CH2F = FC*
How the values were obtained:
thrombin = biological target: T1, thrombin (Homo sapiens, UniProt P00734); experiment: Inhibition of thrombin; assay type: biochemical; conditions: Table II; 10 uM; read-out: Thrombin % I @ 10 uM
T1 construct: purchased Sigma Chem. Co. T-7009

cathepsin L = biological target: T2, cathepsin L (Homo sapiens, UniProt P07711); experiment: Inhibition of cathepsin L; assay type: biochemical; conditions: Table II; read-out: Cat L IC50
T2 construct: purchased Calbiochem 219402
T2 sequence (P07711 114-288 limits assumed): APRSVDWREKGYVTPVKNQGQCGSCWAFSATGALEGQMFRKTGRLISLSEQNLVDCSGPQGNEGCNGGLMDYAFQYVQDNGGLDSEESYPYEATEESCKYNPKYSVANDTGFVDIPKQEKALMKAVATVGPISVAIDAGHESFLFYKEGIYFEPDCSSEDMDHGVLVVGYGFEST
T2 sequence (P07711 292-333 limits assumed): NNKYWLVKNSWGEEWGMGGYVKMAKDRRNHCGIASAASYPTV
Procedure: (§1) Additionally,the order of reagents added to the plate was altered because both enzymes are constitutively active. Following inhibitor addition to the plates, appropriate 2× concentrated stock dilutions of the enzyme preparations were made in assay buffer and 100 μl added to each well. The assay was initiated by addition of 100 μl of 2× concentrated stock dilution of substrate in assay buffer.

[1] = biological target: T3, Recombinant human calpain I (Homo sapiens, UniProt P07384); experiment: Rate of inactivation of calpain I (second order rate constant); assay type: biochemical; conditions: Table II, read-out: Calpain Inactivation Rates
T3 construct: made in house
T3 sequence (P07384 1-714): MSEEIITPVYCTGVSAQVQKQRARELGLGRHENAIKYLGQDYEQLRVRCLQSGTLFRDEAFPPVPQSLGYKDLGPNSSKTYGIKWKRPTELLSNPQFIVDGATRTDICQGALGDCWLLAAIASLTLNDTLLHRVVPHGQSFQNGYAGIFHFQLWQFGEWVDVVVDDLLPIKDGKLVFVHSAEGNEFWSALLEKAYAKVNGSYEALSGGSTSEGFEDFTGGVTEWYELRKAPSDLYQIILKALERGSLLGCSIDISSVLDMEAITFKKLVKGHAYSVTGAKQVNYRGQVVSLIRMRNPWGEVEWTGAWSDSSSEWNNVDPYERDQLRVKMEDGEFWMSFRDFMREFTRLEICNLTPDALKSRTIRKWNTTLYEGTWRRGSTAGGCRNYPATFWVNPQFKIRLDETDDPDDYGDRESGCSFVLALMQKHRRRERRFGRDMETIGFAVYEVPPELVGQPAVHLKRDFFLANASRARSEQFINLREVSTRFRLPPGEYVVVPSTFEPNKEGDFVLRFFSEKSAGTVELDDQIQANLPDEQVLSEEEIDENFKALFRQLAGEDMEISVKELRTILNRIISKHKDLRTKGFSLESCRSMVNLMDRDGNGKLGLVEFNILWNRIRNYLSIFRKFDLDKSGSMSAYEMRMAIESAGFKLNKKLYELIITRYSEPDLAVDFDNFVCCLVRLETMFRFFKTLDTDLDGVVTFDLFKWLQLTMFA
Procedure: To evaluate inhibitory activity, stock solutions (40 times concentrated) of exemplary compounds of the invention were prepared in 100% anhydrous DMSO and 5 μL of each inhibitor preparation were aliquoted into each of three wells of a 96-well plate. Recombinant human calpain I, prepared by the method of Meyer et al. (Biochem. J. 314: 511-519 (1996)), was diluted into assay buffer (i.e., 50 mM Tris, 50 mM NaCl, 1 mM EDTA, 1 mM EGTA, and 5 mM-mercaptoethanol, pH 7.5 including 0.2 mM Succ-Leu-TyrMNA) and 175 μL aliquoted into the same wells containing the independent inhibitor stocks as well as to positive control wells containing 5 μL DMSO, but no compound. To start the reaction, 20 μL of 50 mM CaCl2 in assay buffer was added to all wells of the plate, excepting three, which were used as background signal baseline controls. Substrate hydrolysis was monitored every 5 minutes for a total of 30 minutes. Substrate hydrolysis in the absence of inhibitor was linear for up to 15 minutes.
Inhibition of calpain I activity was calculated as the percent decrease in the rate of substrate hydrolysis in the presence of inhibitor (VI) relative to the rate in its absence (VO). Comparison between VO and VI was made within the linear range for substrate hydrolysis. For screening, compounds were tested at 10, 1.0, and 0.1 μM. Compounds having 50% inhibition at 10 μM were considered active. […] The results were plotted as % inhibition versus log inhibitor concentration and the IC50 was calculated from linear regression of the data. Apparent second order rate constants were determined from analysis of reaction progress curves under pseudo-first order conditions. Each determination represents the means of three or more independent single cuvette analyses continually monitored via a Perkin-Elmer LS50B spectrofluorimeter. […]
where y is the product formed at time t. […] The apparent second order rate constant kapp was determined as Kobs /[I]. […]

α-chymotrypsin = biological target: T4, α-chymotrypsin (Bos taurus, UniProt P00766); experiment: Inhibition of α-chymotrypsin; assay type: biochemical; conditions: Table II; 10 uM; read-out: Chymotrypsin % I @ 10 uM
T4 construct: purchased Sigma Chem. Co. C-3142
How it was run: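 Enzyme added to inhibitor first, then reaction started with substrate; no calcium activation needed as enzyme is constitutively active. Fluorogenic substrate hydrolysis read every 5 min up to 30 min ([…]).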

[2] = biological target: T3, Recombinant human calpain I; experiment: Inhibition of calpain I activity; assay type: biochemical; conditions: Table II
spectrin breakdown = experiment: Spectrin breakdown in gerbil global ischemia model (CA1 hippocampal sector, Western blotting); assay type: in vivo; conditions: FIG. 1
Procedure: Gerbils were anesthetized using 4% isolflurane volatilized using a gas mixture consisting of 30% O2 and 70% N2. After the induction of anesthesia, a preferred compound of the invention, compound 40 (Example 34), was administered either immediately before the induction of ischemia and 24 hours after the initiation of reperfusion (FIG. 2), or three hours after the initiation of reperfusion and 24 hours after the initiation of reperfusion (FIG. 3). To induce ischemia, the common carotid arteries were exposed and occluded bilaterally for 7 minutes. Gerbil core temperature was carefully regulated at 38° C. by a thermostatically controlled heat lamp. Reperfusion was initiated by the release of the arterial occlusion, whereupon anesthesia was terminated so that the gerbils began to breath room air. The neck incision was closed, and the gerbils were returned to the incubator for one hour to maintain their core temperature. At 1 hour of reperfusion, anesthesia was induced by inhalation of CO2 and the gerbils were sacrificed. The CA1 hippocampal sector was dissected using a hole punch (0.3 mm), and spectrin breakdown products (BDP) were determined by Western Blotting. Spectrin breakdown was quantified by image analysis, and percent inhibition was calculated by integrated optical density. […]

cathepsin B = biological target: T5, cathepsin B (Homo sapiens, UniProt P07858); experiment: Inhibition of cathepsin B; assay type: biochemical; conditions: Table II; read-out: Cat B IC50
T5 construct: purchased Calbiochem 219364
Procedure: as §1

hippocampal CA1 neurons = experiment: Survival of hippocampal CA1 neurons in gerbil global ischemia model; assay type: in vivo
Procedure: Gerbils were anesthetized using 4% isolflurane volatilized using a gas mixture consisting of 30% O2 and 70% N2. […] To induce ischemia, the common carotid arteries were exposed and occluded bilaterally for 7 minutes. Gerbil core temperature was carefully regulated at 38° C. by a thermostatically controlled heat lamp. Reperfusion was initiated by the release of the arterial occlusion, whereupon anesthesia was terminated so that the gerbils began to breath room air. The neck incision was closed, and the gerbils were returned to the incubator for one hour to maintain their core temperature. At 1 hour of reperfusion, anesthesia was induced by inhalation of CO2 and the gerbils were sacrificed.
To quantify histopathological damage, the gerbils were returned to their home cages after one hour reperfusion in the incubator and then sacrificed, as described above, four days later. The brains were rapidly removed, frozen on dry ice, and then sectioned using a cryostat. Twenty micron sections were stained with thionin, and surviving neurons in the hippocampal CA1 sector were counted using computer assisted image analysis.

inhibition at 10 µM (thrombin) [%] | IC50 (cathepsin L) [nM] | kinact/KI [1] [M⁻¹ s⁻¹] | inhibition at 10 µM (α-chymotrypsin) [%] | Structure (SMILES) | IC50 [2] [nM] | reduction of spectrin breakdown (spectrin breakdown) | suppression of spectrin breakdown in CA1 hippocampal sectors (spectrin breakdown; vs vehicle-treated control gerbils, p<0.0001) | IC50 (cathepsin B) [nM] | number of surviving hippocampal CA1 neurons relative to controls (hippocampal CA1 neurons; dosed immediately before ischemia and 24 hours after initiation of reperfusion, FIG. 2) | neuroprotection at four days after the ischemic insult (hippocampal CA1 neurons; dosed immediately before ischemia and 24 hours after initiation of reperfusion, p<0.01, FIG. 2) | neuroprotective effect (hippocampal CA1 neurons; dosed three hours and 24 hours after initiation of reperfusion, p<0.02, FIG. 3)
0 | 1800 | 2800 | 7 | CS(=O)(=O)N[C@H](CC(=O)N1CCc2ccccc2C1)C(=O)NC(Cc1ccccc1)C(=O)CF (stereo partly drawn) [Compound 20, THIQ-2-C(=O)CH2 CH(NHS(=O)2 CH3)C(=O)-Phe--CH2 F] | – | – | – | – | – | – | –
0 | – | 26600 | 14 | CS(=O)(=O)N[C@H](CSCc1ccccc1)C(=O)NC(Cc1ccccc1)C(=O)CF (stereo partly drawn) [Compound 33, BnS--CH2 CH(NHS(=O)2 CH3)C(=O)-Phe--CH2] (Ms-[dC](Bn)-[ξF]-CH2F) | – | – | – | – | – | – | –
0 | 1800 | 21000 | 14 | CS(=O)(=O)N[C@H](COCc1ccccc1)C(=O)NC(Cc1ccccc1)C(=O)CF (stereo partly drawn) [Compound 34, BnO--CH2 CH(NHS(=O)2 CH3)C(=O)-Phe--CH2] | – | – | – | – | – | – | –

Structure (SMILES) | inhibition at 10 µM (thrombin) [%] | IC50 (cathepsin L) [nM] | kinact/KI [1] [M⁻¹ s⁻¹] | inhibition at 10 µM (α-chymotrypsin) [%] | IC50 [2] [nM] | reduction of spectrin breakdown (spectrin breakdown) | suppression of spectrin breakdown in CA1 hippocampal sectors (spectrin breakdown; vs vehicle-treated control gerbils, p<0.0001) | IC50 (cathepsin B) [nM] | number of surviving hippocampal CA1 neurons relative to controls (hippocampal CA1 neurons; dosed immediately before ischemia and 24 hours after initiation of reperfusion, FIG. 2) | neuroprotection at four days after the ischemic insult (hippocampal CA1 neurons; dosed immediately before ischemia and 24 hours after initiation of reperfusion, p<0.01, FIG. 2) | neuroprotective effect (hippocampal CA1 neurons; dosed three hours and 24 hours after initiation of reperfusion, p<0.02, FIG. 3)
CS(=O)(=O)N[C@H](COCc1ccccc1)C(=O)N[C@H](C=O)Cc1ccccc1 [Compound 40, BnO--CH2 CH(NHS(=O)2 CH3)C(=O)-Phe--H] | 0 | 9 | – | 23 | 11 | approximately 50% | statistically significant suppression of spectrin breakdown | 42 | more than doubled the number of surviving hippocampal CA1 neurons | neuroprotective at four days after the ischemic insult | neuroprotective effect
